Values after ≈ are worked out from the molar mass of the structure shown. Where no end group is shown, it is not given here.
Key:
[1] = tested on: C. albicans FRR 5580; type: cell-based, Candida albicans; conditions: PDB, overnight; mode of three independent experiments
Description: The assay was carried out as per Alfred et al.. Candida albicans (FRR 5580) was grown in potato dextrose broth (PDB; Difco-BD, Bergen County, NJ, USA) overnight at 30 °C with shaking (200 rpm) until exponential phase, then adjusted to 0.5 McFarland turbidity standard (approximately 1 × 10^6 cells/mL) and diluted 1:200 with PDB to 0.5 − 2 × 10^3 cells/mL. Peptides in 25 μL volumes were mixed with 75 μL of the yeast suspensions. The controls were included as above. The plates were incubated overnight and absorbance was recorded. All the tests were conducted in triplicate.

[2] = tested on: NIH-3T3 cells; assay: Cytotoxicity, MTT assay; type: cell-based, mouse; conditions: 24 h; for IC50 NIH-3T3: peptide up to 250 µg/mL, concentration causing 50% cell growth inhibition, mean of triplicate assays; for Cytotoxicity to NIH-3T3 mouse fibroblasts (in words): up to 250 µg/mL
Description: (§1) Cytotoxicity to human cervical carcinoma HeLa cells and mouse fibroblastic NIH-3T3 cells was determined using the MTT assay as per Scudiero et al. with minor modifications. The cells were maintained in Dulbecco’s Modified Eagle Medium (DMEM) with 10% foetal bovine serum (FBS) and 1% penicillin G in a humidified incubator (Heraeus Hera Cell incubator) at 37 °C with 5% CO2. They were seeded in 96-well microtiter plates at 1 × 10^4 cells/well and allowed to adhere for 24 h in the incubator. The medium was removed, and adherent cells were washed with PBS. Fresh media containing serially diluted peptides in PBS (final concentrations 4 to 250 µg/mL) were added and the cells incubated for 24 h. Cells without peptides were used as negative controls. Following incubations, the medium was removed, and adherent cells were washed with PBS. 150 µL of MTT (diluted to 0.33 mg/mL in DMEM) and the plates incubated for 3 h. The precipitated formazan was dissolved in 100 µL of DMSO and its absorbance measured at 570 nm. Cell viability was determined as: (OD570 nm peptide treated cells/(OD570 nm untreated cells) × 100. Positive cytotoxicity was defined as peptide concentration that causes 50% growth inhibition in a cell line (IC50). All tests were carried out in triplicate.

[3] = tested on: pBlueScript SK+ plasmid DNA; assay: In vitro DNA-binding assay (gel retardation); conditions: 100 ng pBlueScript SK+, peptide 8-500 µg/mL, 1 h room temperature, 1% agarose
Description: The ability of peptides to bind to purified DNA (indicative of in vivo DNA binding potential) was tested by the modified gel retardation assay developed by Alfred et al.. The DNA of pBlueScript SK+ (100 ng) was incubated with peptides (to final concentrations of 8, 16, 32, 64, 125, 250 or 500 µg/mL) in 15 µL volumes made with sterile MilliQ water, the held at room temperature for 1h. Loading dye was added to each sample and the samples electrophoresed on 1% agarose gels. The gels were then immersed in ethidium bromide ([…]) then visualized and imaged

[4] = tested on: HeLa cells; type: cell-based, human; conditions: MTT, 24 h, peptide up to 250 µg/mL; concentration causing 50% cell growth inhibition; mean of triplicate assays
Description: as §1

[5] = tested on: S. aureus ATCC25923; type: cell-based, Staphylococcus aureus; conditions: MHB; for MIC S. aureus, No NaCl: 0 mM NaCl; for MIC S. aureus, No NaCl / MIC S. aureus, With 50mM NaCl / MIC S. aureus, With 100mM NaCl / MIC S. aureus, With 150mM NaCl: triplicate, mode; for MIC S. aureus ATCC25923: 37 °C overnight, A595, mode of three independent experiments
Description: (§2) The activity of peptides was determined against the Gram-positive Staphylococcus aureus (ATCC 25923), and the Gram-negative Escherichia coli (ATCC 25922) and Pseudomonas aeruginosa (ATCC 9027) bacteria. Selected peptides were also tested against two clinical isolates of methicillin-resistant Staphylococcus aureus (MRSA), M173525 and M180920, kindly provided by Dr P. B. Ward (Microbiology Department, Austin and Repatriation Medical Centre, Heidelberg West, Victoria, Australia). The Minimum inhibitory concentration (MIC) of peptides was determined by the microtitre broth dilution method, as described in Phillips et al.. Briefly, bacteria were grown in Mueller-Hinton Broth (MHB) at 37 °C overnight with shaking (200 rpm). The cultures were adjusted to 0.5 McFarland turbidity standard (approximately 1 × 10^8 colony forming units (CFU)/mL), then diluted 1:100 in MHB (1 × 10^6 CFU/mL). A total of 75 μL of these suspensions were mixed with 25 μL of peptide solutions (final concentrations 250 to 0.5 μg/mL) and the microtitre plates incubated overnight at 37 °C. Positive growth controls (inoculum and MHB, with no peptide) and sterility controls (0.01% glacial acetic) were also included. Post-incubations, the absorbance of cultures at 595 nm was measured using a microplate reader (POLARstar Omega, Germany). […] To evaluate salt sensitivity of peptides up to physiological levels (150 mM NaCl), overnight cultures of S. aureus and E. coli adjusted to 0.5 McFarland turbidity standard were diluted 1:100 in MHB containing 0, 50, 100 or 150 mM NaCl, and the MICs of peptides determined as above. All tests were conducted in triplicate. The results are shown as the mode of values obtained.

[6] = tested on: porcine trypsin and proteinase K; assay: Proteases stability assay; type: in vitro ADME, porcine; Tritirachium album; conditions: 1000 µg peptide with 50 µg protease (20:1 w/w), porcine trypsin or proteinase K, PBS pH 7.4, 37 °C, 3 h; read-out activity of supernatant on E. coli and S. aureus; triplicate
Description: The effect of two well-studied proteases, porcine trypsin and proteinase K from Tritirachium album, on the activity of peptides was investigated as per Carmona et al.. Briefly, 1000 µg of a peptide was incubated with 50 µg of a protease (20:1 w/w) at 37 °C for 3 h in phosphate buffered saline PBS (pH 7.4). The enzyme activity was then terminated by heating (70 °C, 5 min) and the samples centrifuged at 12,000× g. The activity of the supernatant on E. coli and S. aureus was tested as above, in triplicate.

[7] = tested on: P. aeruginosa ATCC9027; type: cell-based, Pseudomonas aeruginosa; conditions: MHB, 37 °C overnight, A595; mode of three independent experiments
Description: as §2

[8] = tested on: E. coli ATCC25922; type: cell-based, Escherichia coli; conditions: MHB; for MIC E. coli, No NaCl: 0 mM NaCl; for MIC E. coli, No NaCl / MIC E. coli, With 50mM NaCl / MIC E. coli, With 100mM NaCl / MIC E. coli, With 150mM NaCl: triplicate, mode; for MIC E. coli ATCC25922: 37 °C overnight, A595, mode of three independent experiments
Description: as §2

[9] = tested on: E. coli and S. aureus; assay: Salt tolerance (MICs under 0-150 mM NaCl, summary); type: cell-based, Escherichia coli; Staphylococcus aureus; parameters: key: Up to 50 mM: no effects on antibacterial activity up to 50 mM NaCl but increase in the MICs for E. coli and S. aureus at 100 mM NaCl; Intolerant: not resistant to salt effects even at 50 mM NaCl; Up to 150 mM: no effects on antibacterial activity up to 150 mM NaCl; conditions: MICs for E. coli and S. aureus in MHB with 0, 50, 100 or 150 mM NaCl
Description: as §2

Molecule	MIC C. albicans FRR 5580 [1] [µg/mL]	IC50 NIH-3T3 [2] [µg/mL]	Cytotoxicity to NIH-3T3 mouse fibroblasts (in words) [2]	Binding to DNA in vitro (concentration inhibiting plasmid migration) [3] [µg/mL]	Binding to DNA in vitro (concentration inhibiting plasmid migration) ([3]; listed as cyclized PuroA) [µg/mL]	IC50 HeLa [4] [µg/mL]	MIC S. aureus, No NaCl [5] [µg/mL]	MIC S. aureus, With 50mM NaCl [5] [µg/mL]	MIC S. aureus, With 100mM NaCl [5] [µg/mL]	MIC S. aureus, With 150mM NaCl [5] [µg/mL]	MIC S. aureus ATCC25923 [5] [µg/mL]	Protease Stability [6]	MIC P. aeruginosa ATCC9027 [7] [µg/mL]	MIC E. coli, No NaCl [8] [µg/mL]	MIC E. coli, With 50mM NaCl [8] [µg/mL]	MIC E. coli, With 100mM NaCl [8] [µg/mL]	MIC E. coli, With 150mM NaCl [8] [µg/mL]	MIC E. coli ATCC25922 [8] [µg/mL]	Salt Tolerance [9]
CC(C)[C@@H]1NC(=O)[C@@H]2CCCN2C(=O)[C@H](Cc2ccccc2)NC(=O)CNC(=O)[C@H](CCCCN)NC(=O)[C@H](Cc2c[nH]c3ccccc23)NC(=O)[C@H](Cc2c[nH]c3ccccc23)NC(=O)[C@H](CCCCN)NC(=O)[C@H](Cc2c[nH]c3ccccc23)NC(=O)[C@H](Cc2c[nH]c3ccccc23)NC(=O)[C@H](CCCNC(=N)N)NC(=O)[C@H](Cc2c[nH]c3ccccc23)NC(=O)[C@H]([C@@H](C)O)NC1=O [Cyclic PuroA]	>250	>250	no cytotoxicity	≥ 64	64	>250	125 (≈ 67.7 µM)	250 (≈ 135 µM)	250 (≈ 135 µM)	> 250	125 (≈ 67.7 µM)	Unstable	>250	250 (≈ 135 µM)	> 250	> 250	> 250	250 (≈ 135 µM)	Intolerant
WRWWKWWK-NH2 [Peptide W8]	64	>250	no cytotoxicity	≥ 16		250	8	8	8	8	8	Unstable	32	4	4	4	4	4	Up to 150 mM
RRRRWRWWRWWRR-NH2 [Peptide R8]	250	>250	no cytotoxicity	≥ 64		250	64	64	64	64		Unstable	64	64	64	64	64		Up to 150 mM

— article PMC7696940, “Effects of Rationally Designed Physico-Chemical Variants of the Peptide PuroA on Biocidal Activity towards Bacterial and Mammalian Cells” (International Journal of Molecular Sciences, 2020)
